*1 amine or outer side, *2 acyl side, *3 side chain or, on linkers, in order; H or OH if unused. Where a SMILES comes first, the peptide text is derived from it. Bridges are numbered along the chain shown (N, C = ends). Roman numbers before positions name the chains, in order. [ ]: non-standard residue; d: D form. Actinocin(9to1) = Cc1c2oc3c(C)ccc(C(=O)[*:1])c3nc-2c(C(=O)[*:2])c(N)c1=O; NMeV = CN[C@H](C(=O)O)C(C)C; Sar = CNCC(=O)O
How the values were obtained:
[1] = tested on: NADH dehydrogenase subunit 4 (ND4); details: cited from earlier work
[2] = tested on: ρ^0 (143B/206) and ρ^+ (143B) osteosarcoma cells; experiment: Flow cytometric analysis of apoptotic cells (annexin V / propidium iodide); format: cell-based, human; details: for apoptosis induced in ρ^0 cells compared with ρ^+ cells (early apoptotic cells, annexin V positive/propidium iodide negative): 16 hours, 0.5 μM staurosporine, 100 ng/ml anti-Fas antibody or 20 ng/ml TNFα plus 100 ng/ml actinomycin D; for proapoptotic effect on ρ^0 or ρ^+ cells: agent alone
Experimental: (§1) A human osteosarcoma-derived cell line, 143B, containing mtDNA (ρ^+), and its mtDNA-less derivative, 143B/206 (ρ^0), were maintained in Dulbecco's Modified Eagle Medium (DMEM)-high glucose ([…]; GibcoBRL, Life Technologies AB, Sweden) containing 10% fetal bovine serum, and 100 IU/ml penicillin-streptomycin (GibcoBRL, Life Technologies AB, Sweden). The 143B/206 ρ^0 cells were additionally supplemented with 1 mM sodium pyruvate (GibcoBRL, Life Technologies AB, Sweden) and 50 μg/ml uridine (Sigma-Aldrich AB, Sweden) as described [King et al, Science 246:500-503 (1989)]. Cells were grown to sub-confluence.
We stained the cells with annexin V and propidium iodide using the Vybrant apoptosis assay kit 2 (Molecular Probes, Leiden, The Netherlands). Flow cytometric analyses were performed on a Beckton Dickinson flow cytometer (FACScan) and the results were analyzed by using the Cell Quest program (Beckton Dickinson).

[3] = tested on: ρ^0 (143B/206) and ρ^+ (143B) osteosarcoma cells; experiment: Measurement of caspase 3 activity; format: cell-based, human; details: 16 hours; ρ^0 and ρ^+ cells; compared to untreated cells
Experimental: as §1
Caspase 3 activity was measured by the caspase 3 assay kit (Pharmingen, CA, USA). Briefly, a tetrapeptide labeled with the fluorochrome 7-amino-4-methylcoumarin (AMC) was used as a substrate to identify and quantitate caspase 3 activity. AMC is released from the substrate upon cleavage by caspase-3. Free AMC is quantified in cell lysates by ultraviolet (UV) using an excitation wavelength of 365 nm and an emission wavelength of 460 nm. […] Caspase 3 activity was measured on ρ^0 and ρ^+ cells incubated with 0.5 μM staurosporin (n=3), 100 ng/ml human anti-Fas antibody plus 100 ng/ml actinomycin D (n=3), and 20 ng/ml human recombinant tumour necrosis factor α plus 100 ng/ml actinomycin D (n=3) for 16 hours.

[4] = biological target: T1, human mtDNA light strand promoter (LSP) transcription (Homo sapiens, UniProt O00411+Q00059); experiment: In vitro run off transcription assay with recombinant mtRNAP, TFAM, TFB1M/TFB2M; format: biochemical; details: TFAM (2.5 pmol), mtRNAP/TFB1M (400 fmol) or mtRNAP/TFB2M (400 fmol)
T1 construct: 10xHis (N); 6xHis (C); made in house; host or cells: Sf9 insect cells, recombinant baculovirus (pBacPAK9)
T1 sequence (O00411 42-1230): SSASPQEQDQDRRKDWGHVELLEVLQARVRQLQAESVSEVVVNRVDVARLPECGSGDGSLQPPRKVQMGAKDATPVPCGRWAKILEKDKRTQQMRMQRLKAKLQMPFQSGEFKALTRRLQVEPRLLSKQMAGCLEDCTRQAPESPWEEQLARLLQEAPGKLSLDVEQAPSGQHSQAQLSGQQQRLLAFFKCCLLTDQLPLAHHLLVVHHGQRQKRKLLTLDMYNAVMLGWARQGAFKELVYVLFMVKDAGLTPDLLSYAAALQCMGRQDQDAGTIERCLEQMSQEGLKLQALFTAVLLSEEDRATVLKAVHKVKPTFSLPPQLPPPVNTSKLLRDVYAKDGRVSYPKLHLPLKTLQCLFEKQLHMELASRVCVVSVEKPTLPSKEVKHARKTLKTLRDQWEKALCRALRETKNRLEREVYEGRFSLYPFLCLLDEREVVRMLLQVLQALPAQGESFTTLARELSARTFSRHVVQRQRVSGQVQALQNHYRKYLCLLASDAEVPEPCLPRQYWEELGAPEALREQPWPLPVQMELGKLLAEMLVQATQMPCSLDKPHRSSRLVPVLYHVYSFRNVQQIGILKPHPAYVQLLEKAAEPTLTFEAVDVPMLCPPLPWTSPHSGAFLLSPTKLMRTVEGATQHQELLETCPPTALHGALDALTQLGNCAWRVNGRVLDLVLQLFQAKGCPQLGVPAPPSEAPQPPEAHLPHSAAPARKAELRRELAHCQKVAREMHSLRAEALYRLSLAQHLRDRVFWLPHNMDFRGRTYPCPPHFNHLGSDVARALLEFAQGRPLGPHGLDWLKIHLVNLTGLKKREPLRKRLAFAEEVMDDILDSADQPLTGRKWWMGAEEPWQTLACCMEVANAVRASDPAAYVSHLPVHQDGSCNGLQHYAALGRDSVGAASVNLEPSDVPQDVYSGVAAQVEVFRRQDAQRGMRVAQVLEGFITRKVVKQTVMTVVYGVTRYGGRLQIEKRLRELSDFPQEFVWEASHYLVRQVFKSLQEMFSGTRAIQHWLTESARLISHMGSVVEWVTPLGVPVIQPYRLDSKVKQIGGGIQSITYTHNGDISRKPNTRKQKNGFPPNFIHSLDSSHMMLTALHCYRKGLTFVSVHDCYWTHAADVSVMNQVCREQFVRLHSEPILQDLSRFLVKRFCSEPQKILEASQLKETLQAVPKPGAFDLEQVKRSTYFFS
T1 sequence (Q00059 43-246): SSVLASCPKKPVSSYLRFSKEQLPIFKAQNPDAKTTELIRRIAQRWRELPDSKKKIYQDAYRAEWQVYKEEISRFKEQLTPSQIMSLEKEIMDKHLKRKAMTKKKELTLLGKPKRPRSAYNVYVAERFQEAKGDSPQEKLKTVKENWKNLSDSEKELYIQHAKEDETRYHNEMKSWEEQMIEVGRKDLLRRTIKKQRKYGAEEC
From the text: Recombinant human mitochondrial RNA polymerase (mtRNAP), TFAM, TFB1M, and TFB2M were expressed in a baculovirus system and purified to homogeneity. The activity of these proteins was studied in vitro by run off transcription assays. The template used was a human mtDNA fragment containing the light strand promoter (LSP) followed by a 200 base pairs long stretch of double-stranded DNA. Neither, mtRNAP, TFAM, TFB1M nor TFB2M did alone initiate transcription from the mtDNA promoter. […] However, specific transcription initiation from LSP was obtained by combining either mtRNAP, TFAM and TFB1M or mtRNAP, TFAM and TFB2M. On the basis of these experiments we conclude that both TFB1M and TFB2M are functional homologues of the previously identified Saccharomyces cerevisiae protein Mtf1.
To investigate the promoter specificity of the transcription reaction, we added a double-stranded oligonucleotide containing only the LSP sequence in a 100-fold surplus to the template DNA. […]
DNA fragments corresponding to base pairs 1-741 (LSP/HSP), 1-477 (LSP) or 499-741 (HSP) of human mtDNA [Anderson et al., Nature 290:457 (1981)] were cloned into pUC18. […] The pellets were dissolved in 10 μl of gel loading buffer (98% formamide, 10 mM EDTA pH 8.0, 0.025% xylene cyanol FF, 0.025% bromophenol blue), heated at 95° C. for 5 min, and analyzed on a 5% denaturing polyacrylamide gel in 1×TBE. […]

| Molecule | cell death in the cell population [1] | differentiation in the surviving population [1] | further results |
| --- | --- | --- | --- |
| C=C(C)[C@H]1Cc2c(ccc3c2O[C@@H]2COc4cc(OC)c(OC)cc4[C@@H]2C3=O)O1 [Rotenone] | increase cell death | induce differentiation |  |
| CN[C@@H]1C[C@H]2O[C@@](C)([C@@H]1OC)n1c3ccccc3c3c4c(c5c6ccccc6n2c5c31)C(=O)NC4 [STP, staurosporine] |  |  | apoptosis induced in ρ^0 cells compared with ρ^+ cells (early apoptotic cells, annexin V positive/propidium iodide negative) [2]: more STP-induced apoptosis in cells with mtDNA (ρ^+ cells) than in their mtDNA-less derivatives; induction of caspase 3 activity [3]: significant induction of caspase 3 activity in both ρ^0 and ρ^+ cells |
| Cc1c2oc3c(C)ccc(C(=O)N[C@@H]4C(=O)N[C@H](C(C)C)C(=O)N5CCC[C@H]5C(=O)N(C)CC(=O)N(C)[C@@H](C(C)C)C(=O)O[C@@H]4C)c3nc-2c(C(=O)N[C@@H]2C(=O)N[C@H](C(C)C)C(=O)N3CCC[C@H]3C(=O)N(C)CC(=O)N(C)[C@@H](C(C)C)C(=O)O[C@@H]2C)c(N)c1=O [actinomycin D] (I: T[dV]P[Sar][NMeV] / II: T[dV]P[Sar][NMeV]; ester I:1-I:C, II:1-II:C; linker I:N-II:N via Actinocin(9to1)) |  |  | apoptosis induced in ρ^0 cells compared with ρ^+ cells (early apoptotic cells, annexin V positive/propidium iodide negative) [2]: no significant differences in the fraction of apoptotic cells; proapoptotic effect on ρ^0 or ρ^+ cells [2]: proapoptotic effect on both ρ^0 and ρ^+ cells |
| Antimycin A | increase cell death | induce differentiation |  |
| Oligomycine | increase cell death | induce differentiation |  |
| TNFα |  |  | proapoptotic effect on ρ^0 or ρ^+ cells [2]: no proapoptotic effect |
| TFB2M: recombinant human mitochondrial transcription factor B2, homologue of yeast Mtf1, expressed in a baculovirus system (protein) AGRFCILGSEAATRKHLPARNHCGLSDSSPQLWPEPDFRNPPRKASKASLDFKRYVTDRRLAETLAQIYLGKPSRPPHLLLECNPGPGILTQALLEAGAKVVALESDKTFIPHLESLGKNLDGKLRVIHCDFFKLDPRSGGVIKPPAMSSRGLFKNLGIEAVPWTADIPLKVVGMFPSRGEKRALWKLAYDLYSCTSIYKFGRIEVNMFIGEKEFQKLMADPGNPDLYHVLSVIWQLACEIKVLHMEPWSSFDIYTRKGPLENPKRRELLDQLQQKLYLIQMIPRQNLFTKNLTPMNYNIFFHLLKHCFGRRSATVIDHLRSLTPLDARDILMQIGKQEDEKVVNMHPQDFKTLFETIERSKDCAYKWLYDETLEDR |  |  | transcriptional activation compared with TFB1M [4]: at least one order of magnitude greater |

Reference: patent publication US20040253728A1, “New method” (priority 2000, published 2004)
